In article PMC10582583, “The novel cyclophilin inhibitor C105SR reduces hepatic ischaemia–reperfusion injury via mitoprotection” (JHEP Reports, 2023):

Tests used:
CypD = CypD (Homo sapiens, UniProt P30405); assay: CypD PPIase activity, chymotrypsin-coupled assay; type: biochemical; settings: Table 1
[1] = test system: isolated mouse liver mitochondria; assay: Calcium retention capacity (CRC) assay in isolated liver mitochondria; type: biochemical; settings: for maximal mitochondrial CRC, diastereoisomer vs racemic mixture: Fig. 2E; for maximal mitochondrial CRC: compound at 100 μM (Fig. 1C), basal 160 ± 8; for EC50: isolated mouse liver mitochondria
[2] = test system: isolated mouse liver mitochondria; assay: Ca2+-induced mitochondrial swelling assay; type: biochemical; settings: energised isolated mouse liver mitochondria
AML-12 cells [3] = assay: mPTP opening, CoCl2-calcein AM fluorescence-quenching assay, hypoxia/reoxygenation; type: cell-based, mouse; settings: for prevention of mPTP opening (loss of calcein fluorescence): 1 μM, 4 h hypoxia, 1 h reoxygenation
Experimental: We next evaluated the ability of compounds C105SR and C110SR to inhibit mPTP opening in cells. The hepatocyte cell line AML-12 was subjected to 4 h of hypoxia followed by 1 h of reoxygenation and mPTP opening was monitored using the CoCl2-calcein-acetoxymethyl ester (AM) fluorescence-quenching method.[19] Calcein-AM is a membrane permeable fluorophore which passively diffuses in all subcellular compartments including mitochondria. In the cell, the AM group of the fluorophore is cleaved by ubiquitous intracellular esterases, generating a hydrophilic product that is retained within the cell. The cells are then loaded with the divalent cobalt cation (Co^2+), which quenches calcein fluorescence in all subcellular compartments except the mitochondrial matrix, because the inner mitochondrial membrane is impermeable to cobalt. However, when mPTP is open, cobalt enters mitochondria and quenches mitochondrial calcein fluorescence. […]
(§1) Hypoxia/reoxygenation (H/R) in vitro model. AML-12 mouse hepatocyte line was obtained from American Type Culture Collection (ATCC) and maintained in DMEM/F12 culture medium at 37°C with 5% CO2. HepaRG human hepatocyte line was obtained from American Type Culture Collection (ATCC) and maintained in William’S E culture medium at 37°C with 5% CO2.When indicated, cells were incubated in phosphate buffered saline at 37°C in a hypoxic chamber filled with 94% N2, 1% O2, 5% CO2 for 4 h to mimic ischemic conditions. Then, cells were transferred to a CO2 incubator at 37°C in regular DMEM/F12 culture medium for 1 or 2 h under normoxic conditions (74% N2, 21% O2, 5% CO2). SMCypIs or vehicle (DMSO) were added during the hypoxia period, during the reoxygenation period, or during both. CsA and ALV were used as positive controls for hepatic protection against H/R injury.
Monitoring of mPTP opening. mPTP opening was monitored in AML-12 cells using the CoCl2-calcein AM fluorescence-quenching assay. Cells were loaded with 1 µM calcein-AM (green) for 20 min. Then, 1 mM CoCl2 was added and cells were incubated for another 10 min. Cells were washed and subjected to 4 h of hypoxia followed by 1 h of reoxygenation. Calcein fluorescence was measured using a spectrofluorimeter at excitation and emission wavelengths of 485 nm and 535 nm, respectively. Images were acquired using a standard inverted fluorescence microscope (Zeiss Axio, […]
media during the entire H/R period. Images shown are representative images of 12-18 images. […]
Optical density of purple formazan product was measured at 550 nm. […]

AML-12 cells [4] = assay: LDH release, hypoxia/reoxygenation; type: cell-based, mouse; settings: 0.5 μM
Experimental: As expected, cells subjected to hypoxia/reoxygenation were characterised by greater LDH release and reduced cell viability as compared to untreated controls (Fig. 4A and 4B). […]
as §1, with “injury. […]” for “injury.”
Cell viability assays. Lactate dehydrogenase (LDH) release in culture medium was assessed using the commercially non-radioactive CytoTox-96 kit (Promega, Madison, Wisconsin) following the manufacturer’s instructions. Briefly, cell culture media were collected and the LDH activity was determined by measuring absorbance at 491 nm with a spectrometer (Multiskan skyHigh). For 3-(4,5-dimethylthiazol-2-yl)-2,5-diphenyltetrazolium bromide (MTT) assay, cells were incubated with a solution of MTT (0.5 mg/mL) for 2 h at 37°C. The medium was then removed and 50 µL DMSO was added to each well. Optical density of purple formazan product was measured at 550 nm. Cell viability was expressed as a percentage of the untreated control.

Sequence of CypD (P30405 30-207): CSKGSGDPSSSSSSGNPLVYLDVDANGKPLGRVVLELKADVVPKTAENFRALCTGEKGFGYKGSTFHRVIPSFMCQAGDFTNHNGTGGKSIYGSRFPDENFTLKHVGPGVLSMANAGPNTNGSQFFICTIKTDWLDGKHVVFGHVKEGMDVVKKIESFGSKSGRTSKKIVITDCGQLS

| SMILES | IC50 (CypD) [nM] | other results |
| --- | --- | --- |
| CSc1ccccc1C1CCCN1C(=O)C(NC(=O)NCc1cccc2c1OCCO2)c1ccccc1 (stereo not shown) [Compound C129, 1-((2,3-dihydrobenzo[b][1,4]dioxin-5-yl)methyl)-3-(2-(2-(2-(methylthio)phenyl)pyrrolidin-1-yl)-2-oxo-1-phenylethyl)urea] | 260 ± 70 | – |
| CSc1ccccc1C1CCCN1C(=O)C(NC(=O)NCc1ccc(N)cc1)C1CCCCC1 (stereo not shown) [Compound C71, 1-(4-aminobenzyl)-3-(1-cyclohexyl-2-(2-(2-(methylthio)phenyl)pyrrolidin-1-yl)-2-oxoethyl)urea] | 790 ± 210 | – |
| COc1ccc(Br)cc1C(NC(=O)NCc1ccc2c(c1)CCCN2)C(=O)N1CCCC1c1cccc2ccsc12 (stereo not shown) [Compound C105, 1-(2-(2-(benzo[b]thiophen-7-yl)pyrrolidin-1-yl)-1-(5-bromo-2-methoxyphenyl)-2-oxoethyl)-3-((1,2,3,4-tetrahydroquinolin-6-yl)methyl)urea] | – | maximal mitochondrial CRC, diastereoisomer vs racemic mixture [1]: 407 ± 13 nmol Ca2+/mg of mitochondrial; maximal mitochondrial CRC [1]: 407 ± 13 nmol Ca2+/mg of mitochondrial; EC50 [1]: 2370 ± 110 nM; IC50 [2]: 690 ± 50 nM; prevention of mPTP opening (loss of calcein fluorescence) (AML-12 cells [3]): not |
| COc1ccc(Br)cc1C(NC(=O)NCc1ccc(N)cc1)C(=O)N1CCCC1c1cccc2ccsc12 (stereo not shown) [Compound C110, 1-(4-aminobenzyl)-3-(2-(2-(benzo[b]thiophen-7-yl)pyrrolidin-1-yl)-1-(5-bromo-2-methoxyphenyl)-2-oxoethyl)urea] | 100 ± 20 | maximal mitochondrial CRC, diastereoisomer vs racemic mixture [1]: 400 ± 27 nmol Ca2+/mg of mitochondrial; maximal mitochondrial CRC [1]: 400 ± 27 nmol Ca2+/mg of mitochondrial; EC50 [1]: 2830 ± 90 nM; IC50 [2]: 370 ± 6 nM; prevention of mPTP opening (loss of calcein fluorescence) (AML-12 cells [3]): not |
| CSc1ccccc1C1CCCN1C(=O)C(NC(=O)NCc1cccc2c1CCN2)c1ccccc1 (stereo not shown) [Compound C144, 1-(indolin-4-ylmethyl)-3-(2-(2-(2-(methylthio)phenyl)pyrrolidin-1-yl)-2-oxo-1-phenylethyl)urea] | 310 ± 160 | maximal mitochondrial CRC [1]: 422 ± 44 nmol Ca2+/mg of mitochondrial; EC50 [1]: 11760 ± 10 nM; IC50 [2]: 11570 ± 10 nM |
| CSc1ccccc1C1CCCN1C(=O)C(NC(=O)NCc1cccc2[nH]ncc12)c1ccccc1 (stereo not shown) [Compound C178, 1-((1H-indazol-4-yl)methyl)-3-(2-(2-(2-(methylthio)phenyl)pyrrolidin-1-yl)-2-oxo-1-phenylethyl)urea] | 400 ± 190 | – |
| COc1cc(OC)c(C(NC(=O)NCc2ccc(N)cc2)C(=O)N2CCCC2c2cccc3ccsc23)cc1Br (stereo not shown) [Compound C112, 1-(4-aminobenzyl)-3-(2-(2-(benzo[b]thiophen-7-yl)pyrrolidin-1-yl)-1-(5-bromo-2,4-dimethoxyphenyl)-2-oxoethyl)urea] | 480 ± 40 | – |
| CSc1ccccc1C1CCCN1C(=O)C(NC(=O)NCc1ccc(N)cc1)c1ccccc1 (stereo not shown) [Compound C31] | 200 ± 100 | EC50 [1]: 9090 ± 210 nM; IC50 [2]: 1300 ± 50 nM; inhibition of mPTP opening (AML-12 cells [3]; 0.5 μM): not effective; inhibition of cell death (AML-12 cells [4]): not effective |
| COc1ccc(OC)c(C(NC(=O)NCc2cccc3[nH]ncc23)C(=O)N2CCCC2c2ccccc2SC)c1 (stereo not shown) [Compound C171, 1-((1H-indazol-4-yl)methyl)-3-(1-(2,5-dimethoxyphenyl)-2-(2-(2-(methylthio)phenyl)pyrrolidin-1-yl)-2-oxoethyl)urea] | 340 ± 130 | – |
| CSc1ccccc1C1CCCN1C(=O)C(NC(=O)NCc1cccc2[nH]ccc12)c1ccccc1 (stereo not shown) [Compound C172, 1-((1H-indol-4-yl)methyl)-3-(2-(2-(2-(methylthio)phenyl)pyrrolidin-1-yl)-2-oxo-1-phenylethyl)urea] | 210 ± 70 | – |
| CSc1ccccc1C1CCCN1C(=O)C(NC(=O)NN1Cc2ccc(N)cc2C1)c1ccccc1 (stereo not shown) [Compound C185, 1-(5-aminoisoindolin-2-yl)-3-(2-(2-(2-(methylthio)phenyl)pyrrolidin-1-yl)-2-oxo-1-phenylethyl)urea] | 590 ± 190 | – |
| CCNC(=O)N1CCCc2c(CNC(=O)NC(C(=O)N3CCCC3c3ccccc3SC)c3ccccc3)cccc21 (stereo not shown) [Compound C177, N-ethyl-5-((3-(2-(2-(2-(methylthio)phenyl)pyrrolidin-1-yl)-2-oxo-1-phenylethyl)ureido)methyl)-3,4-dihydroquinoline-1(2H)-carboxamide] | 490 ± 320 | – |
| CSc1ccccc1C1CCCN1C(=O)C(NC(=O)NCC1CC2(CNC2)C1)c1ccccc1 (stereo not shown) [Compound C119, 1-((2-azaspiro[3.3]heptan-6-yl)methyl)-3-(2-(2-(2-(methylthio)phenyl)pyrrolidin-1-yl)-2-oxo-1-phenylethyl)urea] | 150 ± 30 | – |
| COc1ccc(OC)c(C(NC(=O)NCc2ccc(N)cc2)C(=O)N2CCCC2c2cccc3ccsc23)c1 (stereo not shown) [Compound C108, 1-(4-aminobenzyl)-3-(2-(2-(benzo[b]thiophen-7-yl)pyrrolidin-1-yl)-1-(2,5-dimethoxyphenyl)-2-oxoethyl)urea] | 480 ± 230 | – |
| COc1ccc(OC)c(C(NC(=O)NCc2cccc3[nH]ccc23)C(=O)N2CCCC2c2ccccc2SC)c1 (stereo not shown) [Compound C170, 1-((1H-indol-4-yl)methyl)-3-(1-(2,5-dimethoxyphenyl)-2-(2-(2-(methylthio)phenyl)pyrrolidin-1-yl)-2-oxoethyl)urea] | 1050 ± 720 | – |
| CSc1ccccc1C1CCCN1C(=O)C(NC(=O)NCc1cccc2ccsc12)c1ccccc1 (stereo not shown) [Compound C142, 1-(benzo[b]thiophen-7-ylmethyl)-3-(2-(2-(2-(methylthio)phenyl)pyrrolidin-1-yl)-2-oxo-1-phenylethyl)urea] | 420 ± 100 | – |
| COc1ccc(Br)cc1C(NC(=O)NC(C)c1ccc(N)c(F)c1)C(=O)N1CCCC1c1ccccc1SC (stereo not shown) [Compound C123, 1-(1-(4-amino-3-fluorophenyl)ethyl)-3-(1-(5-bromo-2-methoxyphenyl)-2-(2-(2-(methylthio)phenyl)pyrrolidin-1-yl)-2-oxoethyl)urea] | 1260 ± 370 | – |
| CSc1ccccc1C1CCCN1C(=O)C(NC(=O)NC(C)c1ccc(N)c(F)c1)c1ccccc1 (stereo not shown) [Compound C101, 1-(1-(4-amino-3-fluorophenyl)ethyl)-3-(2-(2-(2-(methylthio)phenyl)pyrrolidin-1-yl)-2-oxo-1-phenylethyl)urea] | 400 ± 190 | – |
